Assay results: patent publication US20140066431A1, “Benzoxazepines as Inhibitors of PI3K/mTOR and Methods of Their Use and Manufacture” (Exelixis, Inc., priority 2010, published 2014)

Target: mTOR/GbL/Raptor (mTORC1) (Homo sapiens, UniProt P42345)
Experiment: mTOR/GbL/Raptor (mTORC1) ELISA assay
Assay type: biochemical
Details: 0.2 nM mTORC1, 10 μM ATP, 50 nM 4E-BP1
Procedure: The measurement of mTORC1 enzyme activity was performed in an ELISA assay format following the phosphorylation of 4E-BP1 protein. All experiments were performed in the 384-well format. Generally, 0.5 μL DMSO containing varying concentrations of the test compound was mixed with 15 μL enzyme solution. Kinase reactions were initiated with the addition of 15 μL of substrates-containing solution. The assay conditions were as follows; 0.2 nM mTORC1, 10 μM ATP and 50 nM NHis-tagged 4E-BP1 in 20 mM Hepes, pH 7.2, 1 mM DTT, 50 mM NaCl, 10 mM MnCl2, 0.02 mg/mL BSA, 0.01% CHAPS, 50 mM β-glycerophosphate. Following an incubation of 120 minutes at ambient temperature, 20 μL of the reaction volume was transferred to a Ni-Chelate-coated 384-well plate. The binding step of the 4E-BP1 protein proceeded for 60 minutes, followed by washing 4 times each with 50 μL of Tris-buffered saline solution (TBS). Anti-phospho-4E-BP1 rabbit-IgG (20 μL, 1:5000) in 5% BSA-TBST (0.2% Tween-20 in TBS) was added and further incubated for 60 minutes. Incubation with a secondary HRP-tagged anti-IgG was similarly performed after washing off the primary antibody (4 washes of 50 μL). Following the final wash step with TBST, 20 μL of SuperSignal ELISA Femto (Pierce Biotechnology) was added and the luminescence measured using an EnVision plate reader.

Row | IC50 (mTORC1 ELISA) | Compound
1 | not active | CC(=O)c1ccc(N2CCN(C(=O)N3CCOc4ccc(-c5ccc6nc(C)[nH]c6c5)cc4C3)CC2)cc1 [compound 169, 1-[4-(4-{[7-(2-methyl-1H-benzimidazol-6-yl)-2,3-dihydro-1,4-benzoxazepin-4(5H)-yl]carbonyl}piperazin-1-yl)phenyl]ethanone]
2 | not active | Cc1nc2ccc(-c3ccc4c(c3)CN(C(=O)N3CCN(c5ccc([N+](=O)[O-])cc5)CC3)CCO4)cc2[nH]1 [compound 168, 7-(2-methyl-1H-benzimidazol-6-yl)-4-{[4-(4-nitrophenyl)piperazin-1-yl]carbonyl}-2,3,4,5-tetrahydro-1,4-benzoxazepine]
3 | not active | Cc1nc2ccc(-c3ccc4c(c3)CN(C(=O)N3CCC(C5CCNCC5)CC3)CCO4)cc2[nH]1 [compound 71, 1-{[7-(2-methyl-1H-benzimidazol-6-yl)-2,3-dihydro-1,4-benzoxazepin-4(5H)-yl]carbonyl}-4,4′-bipiperidine]
4 | not active | CCOC(=O)CN(Cc1ccccc1)C(=O)N1CCOc2ccc(-c3ccc4nc(C)[nH]c4c3)cc2C1 [compound 151, ethyl N-{[7-[2-methyl-1H-benzimidazol-6-yl)-2,3-dihydro-1,4-benzoxazepin-4(5H)-yl]carbonyl}-N-(phenylmethyl)glycinate]
5 | not active | Cc1nc2ccc(-c3ccc4c(c3)CN(C(=O)N3CC[S+]([O-])CC3)CCO4)cc2[nH]1 [compound 101, 7-(2-methyl-1H-benzimidazol-6-yl)-4-[(1-oxidothiomorpholin-4-yl)carbonyl]-2,3,4,5-tetrahydro-1,4-benzoxazepine]
6 | not active | Cc1nc2ccc(-c3ccc4c(c3)CN(C(=O)N3CCN(C(=O)c5ccco5)CC3)CCO4)cc2[nH]1 [compound 158, 4-{[4-(furan-2-ylcarbonyl)piperazin-1-yl]carbonyl}-7-(2-methyl-1H-benzimidazol-6-yl)-2,3,4,5-tetrahydro-1,4-benzoxazepine]
7 | not active | Cc1nc2ccc(-c3ccc4c(c3)CN(C(=O)N3CC[C@H](O)C3)CCO4)cc2[nH]1 [compound 82, (3S)-1-{[7-(2-methyl-1H-benzimidazol-6-yl)-2,3-dihydro-1,4-benzoxazepin-4(5H)-yl]carbonyl}pyrrolidin-3-ol]
8 | not active | Cc1nc2ccc(-c3ccc4c(c3)CN(C(=O)N3CCN(C)CC3c3ccccc3)CCO4)cc2[nH]1 (stereo not drawn) [compound 144, 7-(2-methyl-1H-benzimidazol-6-yl)-4-[(4-methyl-2-phenylpiperazin-1-yl)carbonyl]-2,3,4,5-tetrahydro-1,4-benzoxazephin]
9 | not active | Cc1nc2ccc(-c3ccc4c(c3)CN(C(=O)N3CCC(O)(C(F)(F)F)CC3c3ccc(F)c(F)c3)CCO4)cc2[nH]1 (stereo not drawn) [compound 119, 2-(3,4-difluorophenyl)-1-{[7-(2-methyl-1H-benzimidazol-6-yl)-2,3-dihydro-1,4-benzoxazepin-4(5H)-yl]carbonyl}-4-(trifluoromethyl)piperidin-4-ol]
10 | not active | Cc1nc2ccc(-c3ccc4c(c3)CN(C(=O)N3CCCC3)CCO4)cc2[nH]1 [compound 87, 7-(2-methyl-1H-benzimidazol-6-yl)-4-(pyrrolidin-1-ylcarbonyl)-2,3,4,5-tetrahydro-1,4-benzoxazepine]
11 | not active | Cc1nc2ccc(-c3ccc4c(c3)CN(C(=O)N3CCCCC3c3cc(C(F)(F)F)cc(C(F)(F)F)c3)CCO4)cc2[nH]1 (stereo not drawn) [compound 115, 4-({2-[3,5-bis(trifluoromethyl)phenyl]piperidin-1-yl}carbonyl)-7-(2-methyl-1H-benzimidazol-6-yl)-2,3,4,5-tetrahydro-1,4-benzoxazepine]
12 | not active | Cc1nc2ccc(-c3ccc4c(c3)CN(C(=O)N3CCOCC3)CCO4)cc2[nH]1 [compound 132, 7-(2-methyl-1H-benzimidazol-6-yl)-4-(morpholin-4-ylcarbonyl)-2,3,4,5-tetrahydro-1,4-benzoxazepine]
13 | not active | CC1CCN(C(=O)N2CCOc3ccc(-c4cc(NCc5ccccc5)[nH]n4)cc3C2)CC1 [compound 9, 3-{4-[(4-methylpiperidin-1-yl)carbonyl]-2,3,4,5-tetrahydro-1,4-benzoxazepin-7-yl}-N-(phenylmethyl)-1H-pyrazol-5-amine]
14 | not active | Cc1nc2ccc(-c3ccc4c(c3)CN(C(=O)N3CC[C@@H](O)C3)CCO4)cc2[nH]1 [compound 78, (3R)-1-{[7-(2-methyl-1H-benzimidazol-6-yl)-2,3-dihydro-1,4-benzoxazepin-4(5H)-yl]carbonyl}pyrrolidin-3-ol]

Row | Compound | IC50 (mTORC1 ELISA)
15 | Cc1nc2ccc(-c3ccc4c(c3)CN(C(=O)N3[C@@H]5CC[C@H]3C[C@@H](CO)C5)CCO4)cc2[nH]1 [compound 112, (8-{[7-(2-methyl-1H-benzimidazol-6-yl)-2,3-dihydro-1,4-benzoxazepin-4(5H)-yl]carbonyl}-8-azabicyclo[3.2.1]oct-3-(endo)-yl)methanol] | not active

Target: PI3Kα (Homo sapiens, UniProt P42336)
Experiment: PI3K biochemical assay (ATP consumption, luciferase-luciferin)
Details: 1.5 nM enzyme, 1 μM ATP, 10 μM PIP2
Procedure: PI3Kα activity is measured as the percent of ATP consumed following the kinase reaction using luciferase-luciferin-coupled chemiluminescence. Reactions were conducted in 384-well white, medium binding microtiter plates (Greiner). Kinase reactions were initiated by combining test compounds, ATP, substrate (PIP2), and kinase in a 20 μL volume in a buffer solution. The standard PI3Kalpha assay buffer is composed 50 mM Tris, pH 7.5, 1 mM EGTA, 10 mM MgCl2, 1 mM DTT and 0.03% CHAPS. The standard assay concentrations for enzyme, ATP, and substrate are 1.5 nM, 1 μM, and 10 μM, respectively. The reaction mixture was incubated at ambient temperature for approximately 2 h. Following the kinase reaction, a 10 μL aliquot of luciferase-luciferin mix (Promega Kinase-Glo) was added and the chemiluminescence signal measured using a Victor2 plate reader (Perkin Elmer). Total ATP consumption was limited to 40-60% and IC50 values of control compounds correlate well with literature references. Substituting PI3Kα with PI3Kβ, PI3Kγ, or PI3Kδ, the inhibitory activity of the compounds for the other isoforms of I3K were measured.

PI3Kα, sequence (P42336 whole entry): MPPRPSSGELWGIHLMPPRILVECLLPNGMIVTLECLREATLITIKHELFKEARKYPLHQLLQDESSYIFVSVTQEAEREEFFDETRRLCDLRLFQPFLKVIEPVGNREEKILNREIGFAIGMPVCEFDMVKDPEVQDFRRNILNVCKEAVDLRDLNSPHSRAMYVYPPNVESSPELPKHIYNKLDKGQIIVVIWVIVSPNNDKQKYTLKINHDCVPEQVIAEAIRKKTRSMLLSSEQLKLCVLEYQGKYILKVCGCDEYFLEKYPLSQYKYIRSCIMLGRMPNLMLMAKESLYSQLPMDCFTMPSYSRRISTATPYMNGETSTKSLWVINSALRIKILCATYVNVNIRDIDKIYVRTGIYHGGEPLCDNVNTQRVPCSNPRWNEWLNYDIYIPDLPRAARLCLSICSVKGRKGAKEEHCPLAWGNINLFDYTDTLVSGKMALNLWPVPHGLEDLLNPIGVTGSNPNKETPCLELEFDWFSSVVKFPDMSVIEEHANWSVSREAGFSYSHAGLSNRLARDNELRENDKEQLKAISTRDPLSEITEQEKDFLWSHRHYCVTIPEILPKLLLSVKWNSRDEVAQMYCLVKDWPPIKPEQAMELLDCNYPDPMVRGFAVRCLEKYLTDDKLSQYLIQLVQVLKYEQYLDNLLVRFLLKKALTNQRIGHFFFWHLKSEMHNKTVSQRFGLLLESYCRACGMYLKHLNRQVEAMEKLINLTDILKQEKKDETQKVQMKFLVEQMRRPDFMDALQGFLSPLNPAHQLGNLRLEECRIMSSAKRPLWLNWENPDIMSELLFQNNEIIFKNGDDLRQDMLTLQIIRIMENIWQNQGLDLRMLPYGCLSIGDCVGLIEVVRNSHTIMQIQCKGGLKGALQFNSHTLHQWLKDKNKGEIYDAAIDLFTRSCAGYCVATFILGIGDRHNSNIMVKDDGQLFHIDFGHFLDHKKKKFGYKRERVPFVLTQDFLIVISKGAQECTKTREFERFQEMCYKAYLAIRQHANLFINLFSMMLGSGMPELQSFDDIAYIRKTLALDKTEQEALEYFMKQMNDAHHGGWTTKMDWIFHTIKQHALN
PI3Kα, sequence (P27986 whole entry partner): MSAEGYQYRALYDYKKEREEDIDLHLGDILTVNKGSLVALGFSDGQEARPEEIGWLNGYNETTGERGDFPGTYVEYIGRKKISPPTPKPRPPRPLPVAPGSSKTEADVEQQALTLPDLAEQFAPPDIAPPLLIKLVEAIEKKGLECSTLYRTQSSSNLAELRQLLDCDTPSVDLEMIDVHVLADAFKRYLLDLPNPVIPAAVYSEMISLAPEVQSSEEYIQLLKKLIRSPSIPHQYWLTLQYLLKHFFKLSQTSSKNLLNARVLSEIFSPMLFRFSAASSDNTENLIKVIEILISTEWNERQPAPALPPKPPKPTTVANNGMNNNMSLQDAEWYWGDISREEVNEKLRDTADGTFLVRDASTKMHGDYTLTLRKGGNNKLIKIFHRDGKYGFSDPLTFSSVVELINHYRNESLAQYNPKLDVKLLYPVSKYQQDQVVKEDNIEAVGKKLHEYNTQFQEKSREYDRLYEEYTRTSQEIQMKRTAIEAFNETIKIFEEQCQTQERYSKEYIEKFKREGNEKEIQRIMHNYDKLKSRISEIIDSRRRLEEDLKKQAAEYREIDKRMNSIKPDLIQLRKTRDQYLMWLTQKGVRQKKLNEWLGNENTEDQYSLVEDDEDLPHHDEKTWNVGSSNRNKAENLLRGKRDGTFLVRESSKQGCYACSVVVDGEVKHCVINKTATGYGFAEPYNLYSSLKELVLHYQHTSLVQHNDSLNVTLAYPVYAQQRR

Row | IC50 (PI3Kα biochemical assay) | Compound
16 | not active | Cc1nc2cc(-c3ccc4c(c3)CN(C(=O)N3CC[C@@](C)(O)C[C@@H]3c3ccccc3)CCO4)ccc2[nH]1 (racemic) [compound 133, (±)-(2R,4R)-4-methyl-1-{[7-(2-methyl-1H-benzimidazol-5-yl)-2,3-dihydro-1,4-benzoxazepin-4(5H)-yl]carbonyl}-2-phenylpiperidin-4-ol]
17 | not active | Cc1nc2ccc(-c3ccc4c(c3)CN(C(=O)N3CCN(C)C(=O)C3)CCO4)cc2[nH]1 [compound 146, 1-methyl-4-{[7-(2-methyl-1H-benzimidazol-6-yl)-2,3-dihydro-1,4-benzoxazepin-4(5H)-yl]carbonyl}piperazin-2-one]
18 | not active | Cc1nc2ccc(-c3ccc4c(c3)CN(C(=O)N3CCCC[C@H]3c3ccccc3)CCO4)cc2[nH]1 [compound 65, 7-(2-methyl-1H-benzimidazol-6-yl)-4-{[(2S)-2-phenylpiperidin-1-yl]carbonyl}-2,3,4,5-tetrahydro-1,4-benzoxazepine]
19 | not active | Cc1nc2ccc(-c3ccc4c(c3)CN(C(=O)N3CCCCC3c3ccccc3C)CCO4)cc2[nH]1 (stereo not drawn) [compound 126, 7-(2-methyl-1H-benzimidazol-6-yl)-4-{[2-(2-methylphenyl)piperidin-1-yl]carbonyl}-2,3,4,5-tetrahydro-1,4-benzoxazepine]
20 | not active | Cc1nc2ccc(-c3ccc4c(c3)CN(C(=O)N3CCC(O)(c5ccc(C(F)(F)F)cc5)CC3)CCO4)cc2[nH]1 [compound 141, 1-{[7-(2-methyl-1H-benzimidazol-6-yl)-2,3-dihydro-1,4-benzoxazepin-4(5H)-yl]carbonyl}-4-[4-(trifluoromethyl)phenyl]piperidin-4-ol]

Row | Compound | IC50 (PI3Kα biochemical assay)
21 | Cc1nc2ccc(-c3ccc4c(c3)CN(C(=O)N3[C@@H]5CC[C@H]3C[C@@H](N)C5)CCO4)cc2[nH]1 [compound 77, 8-{[7-(2-methyl-1H-benzimidazol-6-yl)-2,3-dihydro-1,4-benzoxazepin-4(5H)-yl]carbonyl}-8-azabicyclo[3.2.1]octan-3-(endo)-amine] | not active
